Literature values as cited in US10184942B2, “Natriuretic peptide receptor as a biomarker for diagnosis and prognosis of cancer” (UNIVERSITY OF SOUTH FLORIDA, priority 2011, dated 2019).

Tested on: PCa cells
Conditions: in vitro and in mice

Row | Compound | proliferation of PCa cells
1 | CC[C@H](C)[C@@H]1NC(=O)[C@H](CCCNC(=N)N)NC(=O)[C@H](CC(=O)O)NC(=O)[C@H](CCSC)NC(=O)[C@H](CCCNC(=N)N)NC(=O)CNC(=O)CNC(=O)[C@H](Cc2ccccc2)NC(=O)[C@@H](NC(=O)[C@H](CO)NC(=O)[C@H](CO)NC(=O)[C@H](CCCNC(=N)N)NC(=O)[C@H](CCCNC(=N)N)NC(=O)[C@H](CC(C)C)NC(=O)[C@@H](N)CO)CSSC[C@@H](C(=O)N[C@@H](CC(N)=O)C(=O)N[C@@H](CO)C(=O)N[C@@H](Cc2ccccc2)C(=O)N[C@@H](CCCNC(=N)N)C(=O)N[C@@H](Cc2ccc(O)cc2)C(=O)O)NC(=O)CNC(=O)[C@H](CC(C)C)NC(=O)CNC(=O)[C@H](CO)NC(=O)[C@H](CCC(N)=O)NC(=O)[C@H](C)NC(=O)CNC1=O [ANP, atrial natriuretic peptide] | inhibit the proliferation
2 | VD: vessel dilator, an ANP prohormone peptide (EVVPPQVLSEPNEEAGAALSPLPEVPPWTGEVSPAQR; Vessel dilator; UniProt P01160 56-92, looked up) | inhibit the proliferation
